Measurements from patent publication US20190038756A1, “COMPOSITIONS INCLUDING BENZENESULFONAMIDE-CONTAINING NON-STEROIDAL ANTI-INFLAMMATORY DRUGS, SILK FIBROIN, AND A GELLING AGENT AND USES THEREOF” (Cocoon Biotech Inc., priority 2016, published 2019).
Converted amounts (≈) assume the structure as drawn. Counter-ions that a name gives are not always drawn. Like-named read-outs stand apart in the source and are kept apart here. One block for each compound: values may come before it.

Assays:
[1] = In vitro release study of NSAIDs from silk-PEG hydrogels (UV detection); format: physicochemical; details: for time within which celecoxib was released / sustained release (e.g., greater than one week) using a silk-fibroin hydrogel delivery platform: silk-fibroin hydrogel; for time within which celecoxib was released: 6.5% (w/v) fibroin (FIG. 5); for release of free drug without encapsulation in silk-fibroin hydrogels: no hydrogel
Protocol: Lyophilized silk was dissolved with ultrapure water to obtain concentrations of 1.3, 3.6, 7.0, 13.0, and 23.0% (w/v). Polyethylene glycol (PEG) with molecular weights of 300 and 400 Da (PEG300 and PEG400) was diluted with ultrapure water when necessary. Celecoxib (a benzenesulfonamide-containing NSAID) and other NSAIDs which are not benzenesulfonamide-containing NSAIDs (tenoxicam, meloxicam, and lomoxicam) were dissolved with 80% (v/v) PEG400 solution to obtain low concentration solutions (<40 mg/mL) or with 100% (v/v) PEG300 to obtain high concentration solutions (>100 mg/mL). Diclofenac sodium salt (another NSAID that is not a benzenesulfonamide-containing NSAID) was dissolved in the aqueous silk solution.
The PEG or PEG/drug solution was mixed with silk solution by pipetting up and down gently and aliquoted into a 2-mL Eppendorf tube. Each tube was left at 37° C. to gel overnight (Wang et al., Acta Biomater. 12:51-61, 2015).
To the 2-mL Eppendorf tube containing fibroin-drug hydrogel, 1.95 mL of release medium was added. The release medium contained 1× phosphate buffer, pH 7.4, 0.1% (v/v) Tween-80, and 0.02% (w/v) sodium azide. The samples were incubated at 37° C. with gentle shaking. The release medium was changed after 24 hours and then approximately once every 3 days. The release medium was subjected to UV detection using a UV transparent bottom plate (Corning) at the respective wavelengths listed in Table 8. Control release medium was measured under the same condition for background subtraction. A calibration curve was generated for each drug by dissolving a known amount of each drug in the release medium, and making dilutions with the release medium.

[2] = Solubility of celecoxib in release media; format: physicochemical; details: release medium (phosphate buffered saline with Tween-80), aqueous with cosolvent or surfactant or cyclodextrin; 1× phosphate buffered saline, 2% (v/v) Tween-80, 0.05% sodium azide
[3] = AUC at NOAEL oral dose from oral Celecoxib NDA package; details: in vivo, oral NOAEL dose 20 mg/kg, read-out: Extrapolated AUC for 25 days
[4] = oral NOAEL dose 20 mg/kg, cited from earlier work
[5] = Gelation of silk fibroin hydrogels with varying gelling agents (25° C., 37° C., autoclave); format: physicochemical
[6] = system: TNF-α in human whole blood; experiment: Human whole blood activation: TNF-α by ELISA after 24 hours at 37° C., with or without LPS; format: cell-based
Text: Acute inflammatory responses are initiated via activation of a mammal's innate immune system. Human whole blood contains the principle repertoire of immune cells responsible for initiating an innate driven inflammatory response. Activation of inflammation in human whole blood is a useful in vitro assay for assessing the inflammatory potential of silk-fibroin hydrogel constituents. For this reason, whole human blood was exposed to silk fibroin solutions, three dimensional silk fibroin hydrogels, and a variety of different gelling agents for 24 hours at 37° C. and assessed for activation of inflammation.
Lipopolysaccharide (LPS) was used as a positive stimulator of the inflammatory marker TNF-α, in whole blood. Experiments to assess the inflammatory potential of formulation constituents were conducted both in the absence and the presence of lipopolysaccharide (LPS). The later condition to assess whether any formulation constituent had the activity of potentiating a known inflammatory signal. In each experiment, plasma was collected at the end of the incubation period and analyzed for TNF-α via enzyme-linked immunosorbent assay (ELISA).

[7] = absence of celecoxib, RT curing
[8] = absence of celecoxib, autoclaving

extended time period of celecoxib release ([1]; all hydrogels of FIG. 7): ≤ 56 days
duration of sustained celecoxib release ([1]; fibroin concentrations in the hydrogel […] (w/v) to 6.5% (w/v)): sustained over two months
period over which celecoxib release occurs ([1]; hydrogel fibroin concentration 0.65% (w/v) (FIG. 6)): 15 days
period over which celecoxib release occurs ([1]; hydrogel fibroin concentration 1.3% (w/v) (FIG. 6)): 30 days
period over which celecoxib release occurs ([1]; hydrogel fibroin concentration 12.5% (w/v) (FIG. 6)): 41 days
period over which celecoxib release occurs ([1]; hydrogel fibroin concentration […] (w/v) (FIG. 6)): 41 days
period over which celecoxib release occurs ([1]; no fibroin/“free” celecoxib sample (0% silk-fibroin) (FIG. 6)): 6 days
time within which celecoxib was released ([1]; celecoxib 0.09375% (w/v)): ≤ 30 days
time within which celecoxib was released ([1]; celecoxib 0.1875% (w/v)): ≤ 30 days
time within which celecoxib was released ([1]; celecoxib 0.375% (w/v)): ≤ 75 days
duration of slow release of celecoxib at ˜40 μg a day ([1]; silk-fibroin hydrogels): more than 75 days
slow release rate of celecoxib from silk-fibroin hydrogels ([1]; silk-fibroin hydrogels): ~40 μg a day
solubility [2]: 850 µg/mL (≈ 2230 µM)
Compound: Cc1ccc(-c2cc(C(F)(F)F)nn2-c2ccc(S(N)(=O)=O)cc2)cc1 [Celecoxib, 4-[5-(4-methylphenyl)-3-(trifluoromethyl)pyrazol-1-yl]benzenesulfonamide]
AUC ([3]; Female (F)): 978 µg·h/mL
AUC ([3]; Male (M)): 468 µg·h/mL
AUC at Day 1 ([4]; Female (F)): 39.1 µg·h/mL
AUC at Day 1 ([4]; Male (M)): 18.7 µg·h/mL

time within which drug was completely released ([1]; from all the tested silk-fibroin hydrogels (FIGS. 2-4), 37° C., phosphate buffer pH 7.4, 0.1% Tween-80): ≤ 4 days
release of free drug without encapsulation in silk-fibroin hydrogels [1]: released within one day
sustained release (e.g., greater than one week) using a silk-fibroin hydrogel delivery platform [1]: could not be achieved
Compound: O=C(O)Cc1ccccc1Nc1c(Cl)cccc1Cl [Diclofenac sodium salt]

day at which cumulative release plateaued ([1]; drug with no fibroin (FIG. 1)): 2 days
day at which cumulative release plateaued ([1]; from silk-fibroin hydrogels, all tested formulations (FIG. 1), 37° C., phosphate buffer pH 7.4, 0.1% Tween-80): 6 days
release of free drug without encapsulation in silk-fibroin hydrogels [1]: released within one day
sustained release (e.g., greater than one week) using a silk-fibroin hydrogel delivery platform [1]: could not be achieved
Compound: CN1C(C(=O)Nc2ccccn2)=C(O)c2sc(Cl)cc2S1(=O)=O [Lomoxicam, lomoxicam]

Minimum gelling agent concentration eliciting gelation ([5]; 87 mg/mL celecoxib, RT): 30 % (v/v)
Minimum gelling agent concentration eliciting gelation ([5]; 87 mg/mL celecoxib, autoclave): 10 % (v/v)
Minimum gelling agent concentration eliciting gelation [5, 7]: 40 % (v/v)
Minimum gelling agent concentration eliciting gelation [5, 8]: 20 % (v/v)
Compound: CC(O)CO (stereo not drawn) [Propylene glycol]

Minimum gelling agent concentration eliciting gelation ([5]; 87 mg/mL celecoxib, curing temperature 37° C.): 40 % (v/v)
Minimum gelling agent concentration eliciting gelation ([5]; absence of celecoxib, 37° C.): 40 % (v/v)
Minimum gelling agent concentration eliciting gelation [5, 7]: 50 % (v/v)
Minimum gelling agent concentration eliciting gelation [5, 8]: 30 % (v/v)
Compound: OCC(O)CO [glycerol]

Gelling agent concentration at which a hydrogel formed ([5]; absence of celecoxib, 37° C.): 30 % (w/v)
Gelling agent concentration at which a hydrogel formed ([5]; absence of celecoxib, RT): 30 % (w/v)
Inflammatory potential (TNF-α) in human whole blood ([6]; +/−LPS, relevant concentrations): non-inflammatory
Compound: OC[C@@H](O)[C@@H](O)[C@H](O)[C@@H](O)CO [sorbitol]

Minimum gelling agent concentration eliciting gelation [5, 7]: 40 % (v/v)
Minimum gelling agent concentration eliciting gelation [5, 8]: 20 % (v/v)
Compound: Glycerol formal

Compound: silk fibroin: soluble silk fibroin samples isolated using several different degumming techniques
Inflammatory signal (TNF-α) in human whole blood ([6]; absence of co-added LPS, 24 hours at 37° C.): did not exhibit inflammatory signals beyond low baseline responses
TNF-α response in human whole blood ([6]; presence of LPS, 24 hours at 37° C.): generally reduced compared to the response to LPS alone
